Source: ChEMBL document CHEMBL3091411, “Quercetin inhibits inflammatory bone resorption in a mouse periodontitis model” (J Nat Prod, 2013)
Active and inactive are the calls of the source. The calls are words filed in the database; no cut-off is given here.

Legend:
Mus musculus [1] = assay: Antiinflammatory activity in Aggregatibacter actinomycetemcomitans infected Balb/c mouse model assessed as inhibition of IL-17 production at 100 mg/kg, sc for 15 days post Aggregatibacter actinomycetemcomitans-challenge by ELISA; type: functional, organism-based; set-up: dose 100 mg/kg
Mus musculus [2] = assay: Effect on OPG expression in Aggregatibacter actinomycetemcomitans infected Balb/c mouse model at 100 mg/kg, sc for 15 days post Aggregatibacter actinomycetemcomitans-challenge by Western blotting analysis; type: ADME, organism-based; set-up: dose 100 mg/kg, route subcutaneous; conditions: in vivo, 360 h
Mus musculus [3] = assay: Antiinflammatory activity in Aggregatibacter actinomycetemcomitans infected Balb/c mouse model assessed as inhibition of IL-1beta production at 100 mg/kg, sc for 15 days post Aggregatibacter actinomycetemcomitans-challenge by ELISA; type: functional, organism-based; set-up: dose 100 mg/kg
Mus musculus [4] = assay: Antiperiodontitic activity in Aggregatibacter actinomycetemcomitans infected Balb/c mouse model assessed as downregulation of RANKL expression at 100 mg/kg, sc for 15 days post Aggregatibacter actinomycetemcomitans-challenge by Western blotting analysis; type: functional, organism-based; set-up: dose 100 mg/kg
Mus musculus [5] = assay: Antiinflammatory activity in Aggregatibacter actinomycetemcomitans infected Balb/c mouse model assessed as inhibition of TNFalpha production at 100 mg/kg, sc for 15 days post Aggregatibacter actinomycetemcomitans-challenge by ELISA; type: functional, organism-based; set-up: dose 100 mg/kg
Mus musculus [6] = assay: Antiperiodontitic activity in Aggregatibacter actinomycetemcomitans infected Balb/c mouse model assessed as downregulation of ICAM-1 expression at 100 mg/kg, sc for 15 days post Aggregatibacter actinomycetemcomitans-challenge by Western blotting analysis; type: functional, organism-based; set-up: dose 100 mg/kg
[7] = tested on: Aggregatibacter actinomycetemcomitans; assay: Antimicrobial activity against Aggregatibacter actinomycetemcomitans infected in Balb/c mouse measured per 10^6 colonies at 100 mg/kg, sc measured 14 days post-infection by Gram staining technique (reference value: 6.41 +/- 0.96); type: functional; conditions: route subcutaneous
Mus musculus [8] = assay: Antiperiodontitic activity in Aggregatibacter actinomycetemcomitans infected Balb/c mouse model assessed as inhibition of alveolar bone loss at 100 mg/kg, sc for 15 days post Aggregatibacter actinomycetemcomitans-challenge by methylene blue staining-based microscopic analysis; type: functional, organism-based; set-up: dose 100 mg/kg

## O=c1c(O)c(-c2ccc(O)c(O)c2)oc2cc(O)cc(O)c12 [QUERCETIN]
Mus musculus [1]
  inhibition: Active
Mus musculus [2]
  Activity: Non-toxic
Mus musculus [3]
  inhibition: Active
Mus musculus [4]
  Activity: Active
Mus musculus [5]
  inhibition: Active
Mus musculus [6]
  Activity: Active
[7]
  CFU: 5.86
Mus musculus [8]
  inhibition: Active
